Results taken from patent US20210179632A1, “THIENOPIPERIDINE DERIVATIVE AND USE THEREOF” (JIANGSU TASLY DIYI PHARMACEUTICAL CO. LTD., priority 2013, published 2021).

tested on: platelet aggregation induced by ADP; test: Platelet aggregation induced by ADP in platelet-rich plasma of rats drawn 2 hours after dosing (NJ4 Semi-Platelet Aggregation Analyzer); type: in vivo; settings: male Wistar rats, 3 mg/kg as suspension in 0.25 wt % CMC, blood drawn 2 hours after administration, negative control 61.22 ± 4.73, * P < 0.001
Text: The maximum aggregation rate of irreversible condensed phase can be used to evaluate the effect of subject products on coagulation function. The experiment used NJ4 type Semi-Platelet Aggregation Analyzer of precil company, to survey the inhibitory effect of the subject products provided by Tasly Holding Group. Co. Ltd on platelet aggregation. • Materials • Animals: male Wistar rats, body weight 230-250 g, bought from Beijing Vital River Laboratory • Animal Technology Co. Ltd., animal certification number:SCXK ( ? ) 2007-0001. • Reagents: ADP, bought from Sigma company; clopidogrel was prepared referring to the method in Chinese Journal of Medicinal Chemistry 2007, 17 (3) 163-165; prasugrel was prepared referring to the method in Chinese Journal of Pharmaceuticals 2012, 43 (8) 647-649; vicagrel was prepared referring to the method in Journal of Medicinal Chemistry, 2012, 55(7), 3342-3352. • Subject products: 7 subject products were all provided by Tasly Holding Group. Co. Ltd. • Administration dosage: subject products were suspensed in CMC in a concentration of 0.25 wt %, were administered in a dosage of 3 mg/kg body weight, the administration volume was 2 ml.
2 hours after administering drugs to the rats, anesthesia with mebubarbital, draw blood from abdominal aorta, anticoagulation with sodium citrate 1:9. Obtained platelet-rich plasma and platelet-poor plasma by centrifugation, the volume ratio of the two was platelet-poor plasma:platelet-rich plasma=3:1.

Compound	The maximum aggregation rate of platelet irreversible condensed phase
COC(=O)[C@H](c1ccccc1Cl)N1CCc2sc(OCOP(=O)(OC(C)(C)C)OC(C)(C)C)cc2C1 [TSC-7]	39.2 ± 6.16*
COC(=O)[C@H](c1ccccc1Cl)N1CCc2sc(OCOP(=O)(O)O)cc2C1 [TSC-8]	32.7 ± 9.21*
COC(=O)[C@H](c1ccccc1Cl)N1CCc2sc(OP(=O)(OC(C)C)OC(C)C)cc2C1 [TSC-3]	38.7 ± 4.27*
COC(=O)[C@H](c1ccccc1Cl)N1CCc2sc(OC(C)=O)cc2C1 [Vicagrel, vicagrel, reference compound]	32.36 ± 5.14*
CC(=O)Oc1cc2c(s1)CCN(C(C(=O)C1CC1)c1ccccc1F)C2 (stereo not drawn) [Prasugrel, prasugrel, reference compound]	20.72 ± 18.84*
COC(=O)[C@H](c1ccccc1Cl)N1CCc2sc(OP(=O)(O)O)cc2C1 [TSC-6]	29.6 ± 5.33*
CCOP(=O)(OCC)Oc1cc2c(s1)CCN([C@H](C(=O)OC)c1ccccc1Cl)C2 [TSC-2]	41.7 ± 7.43*
COC(=O)[C@H](c1ccccc1Cl)N1CCc2sc(OS(=O)(=O)O)cc2C1 [TSC-9]	25.7 ± 3.25*
COC(=O)[C@H](c1ccccc1Cl)N1CCc2sccc2C1 [Clopidogrel, reference compound]	46.77 ± 8.28*
COC(=O)[C@H](c1ccccc1Cl)N1CCc2sc(OP(=O)(Oc3ccccc3)Oc3ccccc3)cc2C1 [TSC-4]	46.5 ± 8.16*
COC(=O)[C@H](c1ccccc1Cl)N1CCc2sc(OP(=O)(OC)OC)cc2C1 [TSC-1]	45.8 ± 3.55*
COC(=O)[C@H](c1ccccc1Cl)N1CCc2sc(OP(=O)(OCC(Cl)(Cl)Cl)OCC(Cl)(Cl)Cl)cc2C1 [TSC-5]	39.1 ± 5.66*
